# Assay results as given in patent publication US7648993B2, “Methods of treating disorders with Group I mGluR antagonists” (Brown University, priority 2001, dated 2010).
# Tests used:
# [1] = system: cultured hippocampal neurons; assay: Acid strip immunocytochemistry for internalized GluR1 (AMPARs); format: cell-based, rat
# [2] = system: cultured hippocampal neurons; assay: Immunocytochemical localization of surface synaptic receptors (GluR2, GluR1, NR1, GABAAβ1); format: cell-based, rat; conditions: for GluR1-positive synapses: cycloheximide 60 μM applied 15 min before DHPG where named
# Excerpt: We next determined if the DHPG-induced increase in internalized AMPARs is accompanied by a net decrease in surface-expressed receptor clusters at synapses. At various intervals after DHPG washout, cells were fixed and surface GluR2 or GluR1 was labeled with N-terminal antibodies without permeabilization. The cultures were then permeabilized, and synapses were labeled using an antibody against the presynaptic marker synapsin I or synaptophysin coupled to the appropriate secondary antibody. Under control conditions, most synapses were immunoreactive for AMPAR clusters (GluR2, 80.6±9.0%; n=10 cells, 200 synapses, FIGS. 5A-D; GluR1, 72.5±4.7%; n=15 cells, 225 synapses; FIGS. 5E and F).
# Following experimental treatment, low-density cultures were fixed in 4% paraformaldehyde with 4% sucrose for 5 min. Cultures were rinsed in PBS and then blocked in PBS with 20% fetal bovine serum for 1 h. Cultures were stained with N-terminal receptor antibodies overnight at 4° C. (GluR2, 1:100, Chemicon, Ternecula, California; GluR1, 1:100, gift of R. Huganir; NR1, 1:500, Chemicon MAB363; GABAAβ1, 1:100 Santa Cruz Biologicals, Santa Cruz, Calif.). Cultures were then rinsed in blocking buffer containing 0.1% Triton-X for 20 min and exposed to antibodies directed against presynaptic proteins (synapsin 1, 1:1000, Chemicon; synaptophysin, 1:100, Boehringer Manheim, Irvine, Calif.) for 1 h at room temperature. Cultures were then rinsed and exposed to the appropriate fluorescent secondary antibodies (Jackson Immunoresearch, West Grove, Pa.).
# Microscopy was performed with a Nikon E800 microscope using a 60×1.4 NA objective (Melville, N.Y.). Fluorescence images were collected with a Sensys cooled CCD camera and analyzed using IP-Labs software. Additional images were collected with a Olympus Flowview confocal microscope with a 60×1.2 NA objective. All analyses were performed blind to the stimulation history of the culture. Microscopic fields had 1-3 neurons displaying smooth soma and generally healthy morphology with multiple distinct processes. Immunofluorescence was analyzed along the proximal 50 μm of 3 or more dendrites per neuron. Immunoreactive puncta were defined as discrete points along the dendrite with fluorescence intensity twice the background staining of the neuron. Five cells were analyzed per culture and 3-6 cultures were analyzed per condition. Separate controls were performed with each experiment and a Student's t-test was used to determine statistical significance. Data are expressed as puncta per 10 μm of dendrite unless stated otherwise.
# [3] = system: hippocampal slices from mGluR5 knockout mice; assay: DHPG-LTD of field potentials in hippocampal slices from mGluR5 knockout mice and wild-type littermates; format: cell-based
# Experimental: All animals were used in accordance with procedures approved by the Brown University Institutional Animal Care and Use Committee. Hippocampal slices were prepared from postnatal day 21-30 (P21-30) Long Evans rats (Charles River, Cambridge, Mass.) and mGluR5 knockout mice (Lu et al. 1997) as described previously (Huber et al. 2000). For most experiments, CA3 was removed immediately after sectioning. Slices recovered for 1-2 h at room temperature (rats) or at 30° C. (mice) in artificial cerebrospinal fluid (ACSF) containing (in mM) 124 NaCl, 5 KCl, 1.25 NaH2PO4, 26 NaHCO3, 1 MgCl2, 2 CaCl2, and 10 dextrose, saturated with 95% O2-5% CO2. For recording, slices were placed in a submersion recording chamber and perfused with 30° C. ACSF at a rate of 2 ml/min.
# Baseline responses were collected every 10-30 s using a stimulation intensity (10-30 μA; 0.2 ms) yielding 50-60% of the maximal response. Experiments in which there was a>5% drift in the response magnitude during the 20-min baseline period before DHPG or LFS were excluded from further analysis. All experiments with mGluR5 KO mice used wildtype littermates as controls and were performed blind to the genotype, later determined by Therion (Troy, N.Y.). LFS consisted of 900 pulses at 1 Hz. PP-LFS consisted of 900 pairs of stimuli (50-ms interstimulus interval) delivered at 1 Hz. […]
# The group data were analyzed as follows: 1) the initial slopes of the FPs and excitatory postsynaptic potentials (EPSPs), or the amplitude of the excitatory postsynaptic currents (EPSCs), for each experiment were expressed as percentages of the preconditioning or DHPG baseline average, 2) the time scale in each experiment was converted to time from the onset of conditioning or DHPG, and 3) the time-matched, normalized data were averaged across experiments and expressed in the text and figures as the means ±SE. Significant differences between groups were determined using an independent t-test or ANOVA performed on a 5-min average taken 1 h after LFS or DHPG application.
# [4] = system: hippocampal slices from Fmr1-KO mice and wildtype littermates; assay: DHPG-induced mGluR-LTD of field potentials in hippocampal slices of Fmr1-KO and WT mice; format: cell-based, C57BL/6 congenic mice
# Experimental: ACSF at a rate of 2 ml/min.
# Fresh stocks were made once a week.
# [5] = DHPG 100 μM, 5 min, in APV, 60 min after DHPG
smiles,measurement,setting,value
"NC(C(=O)O)c1cc(O)cc(O)c1 (racemic) [DHPG, (RS)-3,5-dihydroxyphenylglycine]",internalized GluR1 puncta,"[1]; DHPG 50 μM, 5 min, 15 minutes after treatment onset",1.44±0.17 puncta per 10 μm of dendrite
same,internalized GluR1 puncta,"[1]; DHPG 50 μM, 5 min, 1 hour",1.14±0.15 puncta per 10 μm of dendrite
same,"internalized GluR1 puncta, APV experiment","[1]; DHPG 50 μM, 5 min, APV 50 μM",1.49±0.22 puncta per 10 μm of dendrite
same,"internalized GluR1 puncta, LY344545 experiment","[1]; DHPG 50 μM, 5 min, LY344545 100 μM",1.39±0.34 puncta per 10 μm of dendrite
same,"internalized GluR1 puncta, cycloheximide experiment","[1]; measured at 60 minutes, chx 60 μM applied 15 min before DHPG",1.5±0.27 puncta per 10 μm of dendrite
same,GluR1-positive synapses,[2]; 15 min after DHPG,29.3±5.4%
same,NR1-positive synapses,[2]; 15 minutes after DHPG treatment,28±6%
same,change in synapsin puncta density (in words),[2]; 1 h after DHPG,no change
same,synapsin-labeled puncta with GABAAβ1 clusters,[2]; 60 min after DHPG treatment,10.9±2%
same,GluR1-positive synapses,[2]; 60 min after DHPG,20.0±12.0%
same,synapses with surface staining for GluR2,[2]; 1 hour after DHPG treatment,40.8±11%
same,NR1-positive synapses,"[2]; 60 minutes after DHPG treatment, with cycloheximide where named",21±3%
same,"DHPG-LTD, FP % of baseline, mGluR5 heterozygous mutants","[3]; 1 h after DHPG, mGluR5 +/−",84±4%
same,"DHPG-LTD, FP % of baseline, wild-type littermate controls","[3]; 1 h after DHPG, wild type",77±2%
same,"DHPG-LTD, FP % of baseline, mGluR5 homozygous mutants","[3]; measured 1 h after DHPG application, mGluR5 −/−",98±3%
same,"FP slope, % of pre-DHPG baseline, Fmr1-KO mice",[4]; [5],77±3%
same,"FP slope, % of pre-DHPG baseline, WT mice",[4]; [5],88±4%
same,"maximal acute depression, % of pre-DHPG baseline values, KO","[4]; DHPG, Fmr1-KO slices",26±5%
same,"maximal acute depression, % of pre-DHPG baseline values, WT","[4]; DHPG, WT slices",36±4%
